Experimental data reported in ChEMBL document CHEMBL4346715, “Antibacterial activity study of 1,2,4-triazole derivatives” (Eur J Med Chem, 2019).
In brackets after ≈: the same amount, converted by molar mass.

Each compound was assayed on Staphylococcus aureus (assay: Antibacterial activity against Staphylococcus aureus incubated for 18 hrs post 30 mins pre-diffusion by disk diffusion method). Details: not given.
Format: functional

Compound | MIC [µg/mL]
CSc1nc(Cl)cc(Sc2nnc(-c3cc(F)cc(F)c3)[nH]2)n1 | 1.6 to 250 (≈ 4.3 to 672 µM)
FC(F)(F)c1cc(-c2nnc(Sc3cc(Cl)nc(Oc4ccccc4)n3)[nH]2)cc(C(F)(F)F)c1 | 1.6 to 250 (≈ 3.09 to 483 µM)
Cc1cc(C)cc(-c2nnc(Sc3cc(Cl)ncn3)[nH]2)c1 | 1.6 to 250 (≈ 5.03 to 787 µM)
CSc1nccc(Sc2nnc(-c3cc(C(F)(F)F)cc(C(F)(F)F)c3)[nH]2)n1 | 1.6 to 250 (≈ 3.66 to 572 µM)
CSc1nc(Cl)cc(Sc2nnc(-c3ccc(C(F)(F)F)cc3)[nH]2)n1 | 1.6 to 250 (≈ 3.96 to 619 µM)
FC(F)(F)c1cccc(-c2nnc(Sc3cc(Cl)nc(Sc4ccccc4)n3)[nH]2)c1 | 1.6 to 250 (≈ 3.43 to 537 µM)
COc1cc(-c2nnc(Sc3cc(Cl)nc(Sc4ccccc4)n3)[nH]2)ccc1O | 1.6 to 250 (≈ 3.6 to 563 µM)
CSc1nccc(Sc2nnc(-c3cc(C)cc(C)c3)[nH]2)n1 | 1.6 to 250 (≈ 4.86 to 759 µM)
CSc1nc(Cl)cc(Sc2nnc(-c3cccc(F)c3)[nH]2)n1 | 1.6 to 250 (≈ 4.52 to 707 µM)
OCCCCSc1nc(Cl)cc(Sc2nnc(-c3cc(C(F)(F)F)cc(C(F)(F)F)c3)[nH]2)n1 | 1.6 to 250 (≈ 3.02 to 472 µM)
CSc1nc(Cl)cc(Sc2nnc(-c3cccc(C(F)(F)F)c3)[nH]2)n1 | 1.6 to 250 (≈ 3.96 to 619 µM)
CCCCCSc1nc(Cl)cc(Sc2nnc(-c3cc(C(F)(F)F)cc(C(F)(F)F)c3)[nH]2)n1 | 1.6 to 250 (≈ 3.03 to 474 µM)
Fc1cc(F)cc(-c2nnc(Sc3cc(Cl)nc(Sc4ccccc4)n3)[nH]2)c1 | 1.6 to 250 (≈ 3.69 to 576 µM)
CSc1nc(Cl)cc(Sc2nnc(-c3cc(C)cc(C)c3)[nH]2)n1 | 1.6 to 250 (≈ 4.4 to 687 µM)
FC(F)(F)c1cc(-c2nnc(Sc3cc(Cl)ncn3)[nH]2)cc(C(F)(F)F)c1 | 1.6 to 250 (≈ 3.76 to 587 µM)
FC(F)(F)c1ccc(-c2nnc(Sc3cc(Cl)nc(Sc4ccccc4)n3)[nH]2)cc1 | 1.6 to 250 (≈ 3.43 to 537 µM)
Cc1cc(C)cc(-c2nnc(Sc3cc(Cl)nc(Sc4ccccc4)n3)[nH]2)c1 | 1.6 to 250 (≈ 3.76 to 587 µM)
Fc1cccc(-c2nnc(Sc3cc(Cl)nc(Sc4ccccc4)n3)[nH]2)c1 | 1.6 to 250 (≈ 3.85 to 601 µM)
COc1cc(OC)cc(-c2nnc(Sc3cc(Cl)nc(SC)n3)[nH]2)c1 | 1.6 to 250 (≈ 4.04 to 631 µM)

These compounds were tested on Pseudomonas aeruginosa (assay: Antibacterial activity against Pseudomonas aeruginosa ATCC 27853 after 24 hrs by broth microdilution method). Details: ATCC 27853, 24 h.
Format: functional

Compound | MIC [µg/mL]
Cc1nc(-c2ccccc2)sc1-c1nnc(S)n1/N=C/c1cccc([N+](=O)[O-])c1 | 1.95 to 62.5 (≈ 4.62 to 148 µM)
Cc1nc(-c2ccccc2)sc1-c1nnc(S)n1/N=C/c1cccc(Cl)c1Cl | 1.95 to 62.5 (≈ 4.37 to 140 µM)
Cc1nc(-c2ccccc2)sc1-c1nnc(S)n1/N=C/c1ccc(Br)cc1 | 1.95 to 62.5 (≈ 4.27 to 137 µM)
Cc1nc(-c2ccccc2)sc1-c1nnc(S)n1/N=C/c1ccc(F)cc1 | 1.95 to 62.5 (≈ 4.93 to 158 µM)
Cc1nc(-c2ccccc2)sc1-c1nnc(S)n1/N=C/c1c(Cl)cccc1Cl | 1.95 to 62.5 (≈ 4.37 to 140 µM)
Cc1nc(-c2ccccc2)sc1-c1nnc(S)n1/N=C/c1ccc(Cl)cc1Cl | 1.95 to 62.5 (≈ 4.37 to 140 µM)

These compounds were tested on Escherichia coli (assay: Antibacterial activity against Escherichia coli after 24 hrs by broth microdilution method). Details: not given.
Format: functional

Compound | MIC [µg/mL]
Cc1nc(-c2ccccc2)sc1-c1nnc(S)n1/N=C/c1cccc([N+](=O)[O-])c1 | 1.95 to 62.5 (≈ 4.62 to 148 µM)
Cc1nc(-c2ccccc2)sc1-c1nnc(S)n1/N=C/c1cccc(Cl)c1Cl | 1.95 to 62.5 (≈ 4.37 to 140 µM)
Cc1nc(-c2ccccc2)sc1-c1nnc(S)n1/N=C/c1ccc(Br)cc1 | 1.95 to 62.5 (≈ 4.27 to 137 µM)
Cc1nc(-c2ccccc2)sc1-c1nnc(S)n1/N=C/c1ccc(F)cc1 | 1.95 to 62.5 (≈ 4.93 to 158 µM)
Cc1nc(-c2ccccc2)sc1-c1nnc(S)n1/N=C/c1c(Cl)cccc1Cl | 1.95 to 62.5 (≈ 4.37 to 140 µM)
Cc1nc(-c2ccccc2)sc1-c1nnc(S)n1/N=C/c1ccc(Cl)cc1Cl | 1.95 to 62.5 (≈ 4.37 to 140 µM)

What follows are compounds tested on Escherichia coli (assay: Antibacterial activity against Escherichia coli incubated for 18 hrs post 30 mins pre-diffusion by disk diffusion method). Details: not given.
Format: functional

Compound | MIC [µg/mL]
CSc1nc(Cl)cc(Sc2nnc(-c3cc(F)cc(F)c3)[nH]2)n1 | 1.6 to 250 (≈ 4.3 to 672 µM)
FC(F)(F)c1cc(-c2nnc(Sc3cc(Cl)nc(Oc4ccccc4)n3)[nH]2)cc(C(F)(F)F)c1 | 1.6 to 250 (≈ 3.09 to 483 µM)
Cc1cc(C)cc(-c2nnc(Sc3cc(Cl)ncn3)[nH]2)c1 | 1.6 to 250 (≈ 5.03 to 787 µM)
CSc1nccc(Sc2nnc(-c3cc(C(F)(F)F)cc(C(F)(F)F)c3)[nH]2)n1 | 1.6 to 250 (≈ 3.66 to 572 µM)
CSc1nc(Cl)cc(Sc2nnc(-c3ccc(C(F)(F)F)cc3)[nH]2)n1 | 1.6 to 250 (≈ 3.96 to 619 µM)
FC(F)(F)c1cccc(-c2nnc(Sc3cc(Cl)nc(Sc4ccccc4)n3)[nH]2)c1 | 1.6 to 250 (≈ 3.43 to 537 µM)
COc1cc(-c2nnc(Sc3cc(Cl)nc(Sc4ccccc4)n3)[nH]2)ccc1O | 1.6 to 250 (≈ 3.6 to 563 µM)
CSc1nccc(Sc2nnc(-c3cc(C)cc(C)c3)[nH]2)n1 | 1.6 to 250 (≈ 4.86 to 759 µM)
CSc1nc(Cl)cc(Sc2nnc(-c3cccc(F)c3)[nH]2)n1 | 1.6 to 250 (≈ 4.52 to 707 µM)
OCCCCSc1nc(Cl)cc(Sc2nnc(-c3cc(C(F)(F)F)cc(C(F)(F)F)c3)[nH]2)n1 | 1.6 to 250 (≈ 3.02 to 472 µM)
CSc1nc(Cl)cc(Sc2nnc(-c3cccc(C(F)(F)F)c3)[nH]2)n1 | 1.6 to 250 (≈ 3.96 to 619 µM)
CCCCCSc1nc(Cl)cc(Sc2nnc(-c3cc(C(F)(F)F)cc(C(F)(F)F)c3)[nH]2)n1 | 1.6 to 250 (≈ 3.03 to 474 µM)
Fc1cc(F)cc(-c2nnc(Sc3cc(Cl)nc(Sc4ccccc4)n3)[nH]2)c1 | 1.6 to 250 (≈ 3.69 to 576 µM)
CSc1nc(Cl)cc(Sc2nnc(-c3cc(C)cc(C)c3)[nH]2)n1 | 1.6 to 250 (≈ 4.4 to 687 µM)
FC(F)(F)c1cc(-c2nnc(Sc3cc(Cl)ncn3)[nH]2)cc(C(F)(F)F)c1 | 1.6 to 250 (≈ 3.76 to 587 µM)
FC(F)(F)c1ccc(-c2nnc(Sc3cc(Cl)nc(Sc4ccccc4)n3)[nH]2)cc1 | 1.6 to 250 (≈ 3.43 to 537 µM)
Cc1cc(C)cc(-c2nnc(Sc3cc(Cl)nc(Sc4ccccc4)n3)[nH]2)c1 | 1.6 to 250 (≈ 3.76 to 587 µM)
Fc1cccc(-c2nnc(Sc3cc(Cl)nc(Sc4ccccc4)n3)[nH]2)c1 | 1.6 to 250 (≈ 3.85 to 601 µM)
COc1cc(OC)cc(-c2nnc(Sc3cc(Cl)nc(SC)n3)[nH]2)c1 | 1.6 to 250 (≈ 4.04 to 631 µM)

These compounds were tested on Listeria monocytogenes (assay: Antibacterial activity against Listeria monocytogenes ATCC 35152 after 24 hrs by broth microdilution method). Details: ATCC 35152, 24 h.
Format: functional

Compound | MIC [µg/mL]
Cc1nc(-c2ccccc2)sc1-c1nnc(S)n1/N=C/c1cccc([N+](=O)[O-])c1 | 1.95 to 62.5 (≈ 4.62 to 148 µM)
Cc1nc(-c2ccccc2)sc1-c1nnc(S)n1/N=C/c1cccc(Cl)c1Cl | 1.95 to 62.5 (≈ 4.37 to 140 µM)
Cc1nc(-c2ccccc2)sc1-c1nnc(S)n1/N=C/c1ccc(Br)cc1 | 1.95 to 62.5 (≈ 4.27 to 137 µM)
Cc1nc(-c2ccccc2)sc1-c1nnc(S)n1/N=C/c1ccc(F)cc1 | 1.95 to 62.5 (≈ 4.93 to 158 µM)
Cc1nc(-c2ccccc2)sc1-c1nnc(S)n1/N=C/c1c(Cl)cccc1Cl | 1.95 to 62.5 (≈ 4.37 to 140 µM)
Cc1nc(-c2ccccc2)sc1-c1nnc(S)n1/N=C/c1ccc(Cl)cc1Cl | 1.95 to 62.5 (≈ 4.37 to 140 µM)

What follows are compounds tested on Staphylococcus aureus (assay: Antibacterial activity against Staphylococcus aureus ATCC 49444 after 24 hrs by broth microdilution method). Details: ATCC 49444, 24 h.
Format: functional

Compound | MIC [µg/mL]
Cc1nc(-c2ccccc2)sc1-c1nnc(S)n1/N=C/c1cccc([N+](=O)[O-])c1 | 1.95 to 62.5 (≈ 4.62 to 148 µM)
Cc1nc(-c2ccccc2)sc1-c1nnc(S)n1/N=C/c1cccc(Cl)c1Cl | 1.95 to 62.5 (≈ 4.37 to 140 µM)
Cc1nc(-c2ccccc2)sc1-c1nnc(S)n1/N=C/c1ccc(Br)cc1 | 1.95 to 62.5 (≈ 4.27 to 137 µM)
Cc1nc(-c2ccccc2)sc1-c1nnc(S)n1/N=C/c1ccc(F)cc1 | 1.95 to 62.5 (≈ 4.93 to 158 µM)
Cc1nc(-c2ccccc2)sc1-c1nnc(S)n1/N=C/c1c(Cl)cccc1Cl | 1.95 to 62.5 (≈ 4.37 to 140 µM)
Cc1nc(-c2ccccc2)sc1-c1nnc(S)n1/N=C/c1ccc(Cl)cc1Cl | 1.95 to 62.5 (≈ 4.37 to 140 µM)

These compounds were tested on Salmonella typhimurium (assay: Antibacterial activity against Salmonella typhimurium ATCC 14028 after 24 hrs by broth microdilution method). Details: Salmonella enterica, ATCC 14028, 24 h.
Format: functional, Salmonella enterica subsp. enterica serovar Typhimurium

Compound | MIC [µg/mL]
Cc1nc(-c2ccccc2)sc1-c1nnc(S)n1/N=C/c1cccc([N+](=O)[O-])c1 | 1.95 to 62.5 (≈ 4.62 to 148 µM)
Cc1nc(-c2ccccc2)sc1-c1nnc(S)n1/N=C/c1cccc(Cl)c1Cl | 1.95 to 62.5 (≈ 4.37 to 140 µM)
Cc1nc(-c2ccccc2)sc1-c1nnc(S)n1/N=C/c1ccc(Br)cc1 | 1.95 to 62.5 (≈ 4.27 to 137 µM)
Cc1nc(-c2ccccc2)sc1-c1nnc(S)n1/N=C/c1ccc(F)cc1 | 1.95 to 62.5 (≈ 4.93 to 158 µM)
Cc1nc(-c2ccccc2)sc1-c1nnc(S)n1/N=C/c1c(Cl)cccc1Cl | 1.95 to 62.5 (≈ 4.37 to 140 µM)
Cc1nc(-c2ccccc2)sc1-c1nnc(S)n1/N=C/c1ccc(Cl)cc1Cl | 1.95 to 62.5 (≈ 4.37 to 140 µM)
